{
  "source": "patent US4666897A",
  "about": "“Inhibition of mammalian collagenolytic enzymes by tetracyclines” (Research Foundation of State University, priority 1983, dated 1987)",
  "key": {"[1]": {"system": "conventional diabetic rats", "test": "Gingival collagenolytic activity, alveolar bone loss, skin collagen and crevicular microflora in conventional streptozotocin-diabetic rats", "type": "in vivo, rat", "settings": "20 mg per day by gavage", "experimental": "Five month old (mean weight, 445g) male Sprague Dawley rats were made diabetic by I.V. injection of streptozotocin (70 mg/kg body weight), after a 12 hour fasting period, (as described by Golub, et al., Biochim. Biophys. Acta., 534, 73-81 (1978) and Golub, et al., Infect. Immun., 37, 1013-1020 (1982). Age matched uninjected rats served as controls. Some of the diabetic rats received the tetracycline, minocycline (20 mg. Minocin® per day; Lederle Laboratories, Pearl River, N.Y.), by gavage on a daily basis beginning 3 days after diabetes is induced. After a 25 day experimental period, blood samples were taken for glucose analysis, and subgingival plaque samples were taken for assessment of the microflora in the region (McNamara, et. al., Archs. Oral. Biol., 27, 217-223 (1982)). The animals were then sacrificed, gingival samples were taken for tissue culture and the jaw bones dissected.\nAlveolar bone loss was assessed in the right and left mandibles of both the conventional and germfree rats (control and diabetic) using a modification of a previously described technique (Stralfors, et.al, Archs. Oral. Biol., 12, 1213-1216 (1967); Heijl, et. al., J. Periodontal Res., 15, 405-419 (1980)). The mandibles were defleshed (autoclaving followed by soaking in 2N NaOH for 2-3 h), dried, and the distance (expressed as units; 1 unit=0.05 mm) between the cementoenamel junction (CEJ) and the crest of the alveolar bone is measured in the long axis of the root surface at 10 specified sites on lingual surfaces of the 3 molar teeth (see Crawford, et.al., J. Periodontal Res., 13, 316-325 (1978)) using an eye-piece micrometer in a dissecting microscope (20× magnification).\nThe techniques used were those described by Schneir and Golub, (Streptozotocin: Fundamentals and Therapy (Ed. M. K. Agarwal, Elsevier/North-Holland Biomed Press, Chapter 12, pp 161-182, (1981)). […]"}, "[2]": {"system": "GCF collagenase and gingival disease in diabetic twins", "test": "Human gingival crevicular fluid (GCF) study, diabetic twin brothers", "type": "in vivo", "settings": "7 days of treatment", "experimental": "(§1) In a separate study involving humans, gingival crevicular fluid (GCF) samples were collected on filter paper strips inserted into 8 interproximal pockets of selected teeth in the maxillary arch of two twin brothers with juvenile-onset (insulin-dependent) diabetes mellitus. Fluid volume was immediately determined on a modified Periotron (Model 6000, Harco Electronics Ltd., Winnipeg, Canada); then incubated with 10 μl (^3 H-methyl) collagen (20,675 DPM) and 70 μl buffer (50 mM Tris-HCl, pH 7.8, containing 0.2 M sodium chloride and 5 mM calcium chloride). The GCF samples (or reagent blanks or trypsin controls) were incubated at 27° C. for 18 hours with gentle shaking. The reaction was stopped and undigested collagen precipitated by adding 10 μl 0.1 M phenanthroline in dioxane/water (1:1, v/v), 10 μl of nonradioactive methylated carrier collagen (2 mg/ml) in 50 mM Tris-HCl buffer containing 1M NaCl (pH 7.0), and 100 μl dioxane. After mixing, the radiolabeled collagen degradation products were collected by filtration and counted in a liquid scintillation spectrometer (Golub, et. al., 1976, J. Dent. Res., 55, 1049). Using this technique, the reaction blank (no enzyme or GCF added) released about 10% of the total substrate counts; 2-20 ng bacterial collagenase produced a linear increase in the release of radioactive counts from the ^3 H-collagen substrate (the 20 ng level of enzyme degraded 60% of the collagen substrate); and 50 ng trypsin released less than 1% of the counts above blank values. GCF collagenase activity was expressed as units of equivalent activity of vertebrate collagenase (obtained from New England Nuclear, Cat. No. NEK-016); 1 unit was operationally defined as the amount of enzyme that degrades 1 μg of collagen per hour at 27° C.\nFour additional GCF samples were collected from other maxillary pockets of the same diabetic twin brothers on filter paper strips, their volume determined (see above), and collagenolytic activity assessed using the same procedure described above but with a different substrate (10 μl of (^3 H-propionate) collagen, NET-660, New England Nuclear Corp., Boston, Mass., 302,000 DPM).\nHalf of the 12 GCF samples per subject were activated by pretreatment with 1.04 uM trypsin followed by the addition of a 5-fold molar excess of soybean trypsin inhibitor. Samples were selected to be treated or not treated with trypsin by matching them for Gingival Index (Loe and Silness, Acta. Odont. Scand., 21, 533-551 (1967)), GCF flow, and for pocket depth; the clincal parameters (GI, PD) were measured immediately after GCF collection. All measurements were carried out immediately before antibiotic coverage and after 7 days of treatment with either pencillin G (lg. per day; patient three) or the tetracycline minocycline (200 mg/day; patient one)."}, "[3]": {"system": "GCF collagenase and gingival disease in non-diabetic male", "test": "Human GCF study, non-diabetic", "type": "in vivo", "experimental": "as §1\n[…] PD=4.2 mm±0.3), and GCF collagenolytic activity was measured as described above. […] Two additional GCF samples were collected from the same 4 mm pocket, in this patient, before and after minocycline therapy. These samples were incubated with 10 μl ^3 H-collagen for 18 hours (22° C.), then thermally denatured and the collagen subunits and collagenase digestion products were separated by SDS-polyacrylamide gel electrophoresis (Nicoll, et. al., Experientia., 37, 315-317 (1981)). The gels were processed for fluorography (see Sodek, et. al., J. Periodontal. Res., 16, 425-433 (1981)) and exposed to Kodak X A R-5 film for 3 days."}, "[4]": {"settings": "penicillin G 1 g per day (P. D.) or minocycline 200 mg/day (K. D.)"}, "[5]": {"settings": "GCF from the same 4 mm pocket before and after therapy"}},
  "data": [
    {"smiles": "CN(C)c1ccc(O)c2c1C[C@H]1C[C@H]3[C@H](N(C)C)C(O)=C(C(N)=O)C(=O)[C@@]3(O)C(O)=C1C2=O", "note": "[minocycline, Minocycline]", "values": [
      {"measurement": "Gram-negative microflora in the gingival crevices", "setting": "[1]", "value": "eliminated detectable signs"},
      {"measurement": "alveolar bone loss in the interproximal region", "setting": "[1]", "value": "completely reversed"},
      {"measurement": "reduction of gingival collagenolytic activity (tissue culture)", "setting": "[1]; 25 day experimental period", "value": 62, "unit": "%"},
      {"measurement": "GCF flow", "setting": "[2]; [4]", "value": "significant reductions"},
      {"measurement": "Gram-positive and Gram-negative organisms in the pockets", "setting": "[2]; [4]", "value": "marked reduction in Gram-negative"},
      {"measurement": "active GCF collagenase", "setting": "[2]; [4]", "value": "significant reductions"},
      {"measurement": "pocket depth", "setting": "[2]; [4]", "value": "no decrease"},
      {"measurement": "total GCF collagenase (after trypsin pretreatment)", "setting": "[2]; [4]", "value": "significant reductions"},
      {"measurement": "Gingival Index (G. I.)", "setting": "[2]; penicillin G 1 g per day (patient three) or minocycline 200 mg/day (patient one)", "value": "significant reductions"},
      {"measurement": "densitometric analysis of fluorographs: degradation products", "setting": "[3]; GCF before and after therapy", "value": "reduced the percentage of the total radiolabeled collagenous material present as degradation products"},
      {"measurement": "breakdown of intact ^3 H-collagen by GCF (SDS-PAGE fluorography)", "setting": "[3]; [5]", "value": "reduced the breakdown of the intact collagen"},
      {"measurement": "production of α^A and α^B collagen digestion fragments by GCF (fluorography)", "setting": "[3]; [5]", "value": "inhibited the production"},
      {"measurement": "pocket depth", "setting": "[3]; non-diabetic patient two", "value": "essentially unchanged"},
      {"measurement": "reduction of G. I.", "setting": "[3]; non-diabetic patient two", "value": 26, "unit": "%"},
      {"measurement": "reduction of GCF flow", "setting": "[3]; non-diabetic patient two", "value": 71, "unit": "%"},
      {"measurement": "reduction of trypsin-activated collagenase in GCF", "setting": "[3]; non-diabetic patient two", "value": 59, "unit": "%"},
      {"measurement": "reduction of active collagenase in GCF", "setting": "[3]; non-diabetic patient two, minocycline therapy as in (a)", "value": 86, "unit": "%"}
    ]}
  ]
}
